Laboratory results: US5494907A, “11-β substituted-19-nor steroids” (Roussel UCLAF, priority 1993, dated 1996)

How the values were obtained:
[1] = target: T1, hGR (recombinant human glucocorticoid receptor) (Homo sapiens, UniProt P04150); test: Relative bond affinity (RBA) on recombinant human glucocorticoid receptor, displacement of tritiated 6,21-dimethyl-Δ1,4,6-pregnatrien-11β,17β-diol-20-yn-3-one; assay type: binding; details: for RBA hGR: Dexamethasone = 100, 0° C., 24 hours; for affinity for the glucocorticoid receptor (in words): conclusion in words
T1 construct: made in house; host or cells: SF9 insect cells, recombinant baculovirus
T1 sequence (P04150 1-777): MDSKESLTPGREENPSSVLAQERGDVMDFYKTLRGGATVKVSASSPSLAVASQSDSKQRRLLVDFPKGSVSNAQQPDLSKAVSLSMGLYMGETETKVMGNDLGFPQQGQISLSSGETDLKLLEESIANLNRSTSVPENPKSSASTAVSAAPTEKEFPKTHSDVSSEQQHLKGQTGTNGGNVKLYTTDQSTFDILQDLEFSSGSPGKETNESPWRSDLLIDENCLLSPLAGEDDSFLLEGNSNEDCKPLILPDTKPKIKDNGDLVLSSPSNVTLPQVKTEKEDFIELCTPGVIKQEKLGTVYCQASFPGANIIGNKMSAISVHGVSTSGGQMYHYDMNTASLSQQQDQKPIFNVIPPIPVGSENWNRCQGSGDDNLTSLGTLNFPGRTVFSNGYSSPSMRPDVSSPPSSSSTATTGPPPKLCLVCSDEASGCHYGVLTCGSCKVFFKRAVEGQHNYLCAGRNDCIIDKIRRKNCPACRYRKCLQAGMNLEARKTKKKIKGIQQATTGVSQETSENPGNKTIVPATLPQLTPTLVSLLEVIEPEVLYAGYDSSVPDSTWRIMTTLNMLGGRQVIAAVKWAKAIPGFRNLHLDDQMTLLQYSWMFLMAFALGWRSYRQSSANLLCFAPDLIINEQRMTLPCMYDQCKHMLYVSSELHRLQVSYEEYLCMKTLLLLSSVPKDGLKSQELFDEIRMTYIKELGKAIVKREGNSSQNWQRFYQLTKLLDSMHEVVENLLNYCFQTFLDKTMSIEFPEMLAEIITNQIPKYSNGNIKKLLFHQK
Source text: (§1) 1--Activity on the hormonal receptors using either the natural hormonal receptor of a rat (AR), or the recombinant human receptor (PR, GR and ER).
Human glucocorticoid receptor
A supernatant of SF9 cells containing the recombinant human glucocorticoid receptor was obtained by the process described above for the progesterone receptor using the cDNA fragment described HOLLENBERG et al. (Nature (1985), Vol. 318 No. 19/26, p. 635) containing the region coding for the human glucocorticoid receptor. The cells were lysed in a lysis buffer (2). The supernatant was incubated at 0° C. for 24 hours with a constant concentration (T) of 6,21-dimethyl-Δ1,4,6-pregnatrien-11β,17β-diol-20-yn-3-one tritiated in the presence of increasing concentrations either of unlabelled dexamethasone (0-1000×10^-9 M), or of the unlabelled product under test (1 to 25000×10^-9 M). The concentration of bound tritiated 6,21-dimethyl-Δ1,4,6-pregnatrien-11β,17β-diol-20-yn-3-one (B) was then measured in each incubate by the technique of adsorption with carbon dextran.
(§2) Calculation of the relative bond affinity (RBA).
(§3) The following 2 curves were traced: percentage of bound tritiated hormone B/BO as a function of the logarithm of the concentration of unlabelled reference hormone or as a function of the logarithm of the concentration of the unlabelled product under test.
(§4) The straight line of the following equation was determined:
(§5) BO=Concentration of bound tritiated hormone in the absence of any unlabelled product,
(§6) B=Concentration of bound tritiated hormone in the presence of a concentration X of unlabelled product,
(§7) B min=Concentration of bound tritiated hormone in the presence of a large excess of cold reference hormone (500 nM). The intersections of the straight line I50 and the curves allowed the evaluation of the concentrations of unlabelled reference hormone (CH) and of the unlabelled product under test (CX) which inhibited by 50% the specific binding of the tritiated hormone on the receptor.
The relative bond affinity (RBA) of the product under test was determined by the equation:
The RBA's of the reference products estradiol, progesterone, dexamethasone and testosterone were arbitrarily taken to be equal to 100.

[2] = target: T2, AR (androgen receptor of the prostate of a rat) (Rattus norvegicus, UniProt P15207); test: Relative bond affinity (RBA) on androgen receptor of the prostate of a rat, displacement of tritiated testosterone; assay type: binding; details: Testosterone = 100; 0° C., 24 hours
T2 construct: using either the natural hormonal receptor of a rat (AR); from tissue; host or cells: prostate of castrated male Sprague Dawley rats, high-speed supernatant
T2 sequence (P15207 1-902): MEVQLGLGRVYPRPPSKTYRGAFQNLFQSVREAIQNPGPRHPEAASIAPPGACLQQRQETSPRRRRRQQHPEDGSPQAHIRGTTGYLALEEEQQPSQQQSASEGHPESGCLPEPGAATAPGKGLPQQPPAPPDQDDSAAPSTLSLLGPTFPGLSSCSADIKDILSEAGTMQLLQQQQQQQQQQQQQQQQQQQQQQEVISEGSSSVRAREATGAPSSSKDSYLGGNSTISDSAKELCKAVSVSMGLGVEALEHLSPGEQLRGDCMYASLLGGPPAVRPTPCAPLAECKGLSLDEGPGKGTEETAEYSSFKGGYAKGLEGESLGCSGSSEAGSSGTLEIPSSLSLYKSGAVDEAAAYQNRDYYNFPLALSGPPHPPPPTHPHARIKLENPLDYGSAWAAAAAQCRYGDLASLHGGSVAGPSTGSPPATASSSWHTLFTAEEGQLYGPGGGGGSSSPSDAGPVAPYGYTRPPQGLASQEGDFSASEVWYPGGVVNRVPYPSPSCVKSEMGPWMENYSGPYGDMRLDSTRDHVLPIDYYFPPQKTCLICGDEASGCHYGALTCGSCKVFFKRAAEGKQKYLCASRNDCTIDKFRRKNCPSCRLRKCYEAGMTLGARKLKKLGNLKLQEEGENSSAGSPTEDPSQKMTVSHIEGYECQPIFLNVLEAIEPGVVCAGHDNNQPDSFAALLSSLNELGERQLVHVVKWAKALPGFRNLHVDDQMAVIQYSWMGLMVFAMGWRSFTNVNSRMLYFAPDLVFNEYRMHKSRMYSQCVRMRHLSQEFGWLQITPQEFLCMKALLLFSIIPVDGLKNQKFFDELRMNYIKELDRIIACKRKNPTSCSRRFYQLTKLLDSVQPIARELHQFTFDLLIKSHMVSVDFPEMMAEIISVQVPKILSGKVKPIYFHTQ
Protocol: as §1
Androgen receptor of the prostate of a rat
Male Sprague Dawley EOPS rats weighing 180 to 200 g were castrated and 24 hours after the castration, the animals were sacrificed. The prostates were removed, weighed and homogenized at 0° C. using a Potter teflon-glass in a TS buffered solution (10 mM Tris, 0.25 M saccharose, 2 mMDTT, 20 mM MoNa, 0.1 mM PMSF, pH 7.4) (1 g of tissue per 8 ml of TS). The homogenate was centrifuged (209,000 g for 30 minutes) at 0° C. Aliquots of the supernatant were incubated at 0° C. for 24 hours with a constant concentration (T) of tritiated testosterone in the presence of increasing concentrations, either of unlabelled testosterone (0 to 1000×10^-9 M), or of the product under test (1 to 25000×10^-9 M). The concentration of bound tritiated testosterone (B) was measured in each incubate by the technique of adsorption with carbon dextran.
as §2, §3, §4, §5, §6, §7
The relative bond affinity (RBA) of the product under test was determined by the equation: […]

SMILES	RBA hGR [1]	affinity for the glucocorticoid receptor (in words) [1]	RBA AR [2]
CCCCN(C)S(=O)(=O)CCCCCOc1ccc([C@H]2C[C@]3(C)[C@@H](O)CC[C@H]3[C@@H]3CCc4cc(O)ccc4[C@H]32)cc1 [Example 7, N-butyl-5-[4-(Δ1,3,5(10)-estratrien-3,17β-diol-11β-yl)phenoxy]-N-methyl-pentanesulfonamide]	152	marked affinity	2.5
CN(CC(F)(F)C(F)(F)C(F)(F)F)S(=O)(=O)CCCCCOc1ccc([C@H]2C[C@]3(C)[C@@H](O)CC[C@H]3[C@@H]3CCc4cc(O)ccc4[C@H]32)cc1 [Example 8, 5-[4-(Δ1,3,5(10)-estratrien-3,17β-diol-11βyl)-Phenoxy]-N-(2,2,3,3,4,4,4-heptafluorobutyl)-N-methyl-pentanesulfonamide]	114	marked affinity	1.5
CCCCNS(=O)(=O)CCCCCOc1ccc([C@H]2C[C@]3(C)[C@@H](O)CC[C@H]3[C@@H]3CCc4cc(O)ccc4[C@H]32)cc1 [Example 2, N-butyl-5-[4-(Δ1,3,5(10)-estratrien-3,17β-diol-11β-yl)phenoxy]-pentanesulfonamide]	82	marked affinity	3
